According to PubChem BioAssay AID200 (DTP/NCI, 2004):
Several values for one entry are separate records, joined by “and”; a condition that tells them apart may be missing. Equal values may be shown once. Toxic doses and inconclusive results are not listed.

Tested on: B6C3F1 mice, B16 melanoma ip, median survival T/C
Assay: NCI In Vivo Anticancer Drug Screen. Data for tumor model B16 Melanoma (intraperitoneal) in B6C3F1 mice
Settings: endpoint: median survival time, schedule: Q01DX009 (ip), higher = longer survival
Outline: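 Transplantable tumor in mice; treated vs vehicle control groups; survival or tumor size measured; value = T/C ratio.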

[1] = dose: 1.56 mg/kg/injection, vehicle: saline
[2] = dose: 3.12 mg/kg/injection, vehicle: saline
[3] = dose: 50.0 mg/kg/injection, vehicle: saline
[4] = dose: 100.0 mg/kg/injection, vehicle: saline
[5] = dose: 200.0 mg/kg/injection, vehicle: saline
[6] = dose: 400.0 mg/kg/injection, vehicle: saline

For CCN(CC)CCCNc1nccc2c(C)c3[nH]c4ccncc4c3cc12, the T/C (dose: 0.38 mg/kg/injection, vehicle: other) was 176 % of control, the T/C (dose: 0.75 mg/kg/injection, vehicle: other) was 170 % of control and the T/C (dose: 1.5 mg/kg/injection, vehicle: other) was 180 % of control. For the same compound, the T/C (dose: 3.0 mg/kg/injection, vehicle: other) was 202 % of control and the T/C (dose: 6.0 mg/kg/injection, vehicle: other) was 257 % of control.

In the case of ClC1=C(Cl)C2(Cl)C3C(Cl)C(Cl)CC3C1(Cl)C2(Cl)Cl (configuration not stated), the T/C (dose: 1.56 mg/kg/injection, vehicle: saline with Tween-80) is reported as 106 % of control, the T/C (dose: 3.12 mg/kg/injection, vehicle: saline with Tween-80) is reported as 98 % of control and the T/C (dose: 6.25 mg/kg/injection, vehicle: saline with Tween-80) is reported as 101 % of control. For the same compound, the T/C (dose: 12.5 mg/kg/injection, vehicle: saline with Tween-80) was 97 % of control, the T/C (dose: 25.0 mg/kg/injection, vehicle: other) was 95 % of control and the T/C (dose: 25.0 mg/kg/injection, vehicle: saline with Tween-80) was 87 % of control. For the same compound, the T/C (dose: 50.0 mg/kg/injection, vehicle: other) was 106 % of control and the T/C (dose: 100.0 mg/kg/injection, vehicle: other) was 97 % of control.

Cc1cc(NCCCN(C)C)c2ccc3c(ccc4c(NCCCN(C)C)cc(C)nc43)c2n1 was tested, and the T/C (dose: 0.19 mg/kg/injection, vehicle: saline) was 114 % of control, the T/C (dose: 0.39 mg/kg/injection, vehicle: saline) was 102 % of control and the T/C (dose: 0.78 mg/kg/injection, vehicle: saline) was 91 % of control. For the same compound, the T/C [1] was 106 % of control and the T/C [2] was 113 % of control and 102 % of control.

For CN(C)C=O, the T/C (dose: 25.0 mg/kg/injection, vehicle: saline) was 99 % of control, the T/C [3] was 112 % of control and 100 % of control and the T/C [4] was 88 % of control and 96 % of control. For the same compound, the T/C [5] was 86 % of control and 93 % of control, the T/C [6] was 122 % of control and 98 % of control and the T/C (dose: 800.0 mg/kg/injection, vehicle: saline) was 108 % of control and 122 % of control. The T/C (dose: 1600.0 mg/kg/injection, vehicle: saline) was 116 % of control.

For CC(C)CC1C(=O)N2CCCC2C2(O)OC(NC(=O)C3C=C4c5cccc6[nH]cc(c56)CC4N(C)C3)(C(C)C)C(=O)N12 (configuration not stated), the T/C (dose: 2.5 mg/kg/injection, vehicle: Klucel (hydroxypropylcellulose) (HPC)) was 120 % of control, the T/C (dose: 5.0 mg/kg/injection, vehicle: Klucel (hydroxypropylcellulose) (HPC)) was 111 % of control and the T/C (dose: 10.0 mg/kg/injection, vehicle: Klucel (hydroxypropylcellulose) (HPC)) was 109 % of control. The T/C (dose: 20.0 mg/kg/injection, vehicle: Klucel (hydroxypropylcellulose) (HPC)) was 98 % of control and the T/C (dose: 40.0 mg/kg/injection, vehicle: Klucel (hydroxypropylcellulose) (HPC)) was 105 % of control.

NC(CCC(=O)Nc1ccc(O)cc1)C(=O)O (configuration not stated) was tested, and the T/C [3] was 117 % of control, the T/C [4] was 120 % of control and the T/C [5] was 103 % of control. The T/C [6] was 124 % of control.

CCCCCC(O)C1C(=O)OC(C)C(O)/C=C/C=C/C=C/C=C/C=C(\C)C(O)C(O)C(O)CC(O)CC(O)CC(O)CC(O)CC1O (configuration not stated) was tested, and the T/C (dose: 0.5 mg/kg/injection, vehicle: other) was 98 % of control, the T/C (dose: 1.0 mg/kg/injection, vehicle: other) was 119 % of control and the T/C [1] was 102 % of control. The T/C [2] was 88 % of control, the T/C (dose: 4.0 mg/kg/injection, vehicle: other) was 169 % of control and the T/C (dose: 8.0 mg/kg/injection, vehicle: other) was 166 % of control.

[Cl][Pt+2][Cl].[NH-]c1cc(Cl)c(Cl)c(Cl)c1[NH-] was tested, and the T/C (dose: 40.0 mg/kg/injection, vehicle: distilled water + Tween-80) was 109 % of control and the T/C (dose: 80.0 mg/kg/injection, vehicle: distilled water + Tween-80) was 102 % of control.
